Results published in ChEMBL document CHEMBL4507262, “Data for DCP probe A-1596586” (2021).

Assays:
[1] = molecular target: GABA-A receptor; anion channel (Rattus norvegicus) (UniProt O09028+P15431+P18506+P18508+P19969+P20236+P23574+P23576+P28471+P28473+P30191+P62813+P63079+P63138+Q91ZM7+Q9ES14); assay: BZD (central) Eurofins-Cerep binding assay; assay type: protein-complex assay; parameters: ligand concentration 0.4 nM; conditions: filed as agonist, Compound concentration 10.0 uM
[2] = molecular target: Muscarinic acetylcholine receptor M3 (Homo sapiens) (UniProt P20309); assay: M3 (h) Eurofins-Cerep binding assay; parameters: ligand concentration 0.2 nM; conditions: filed as antagonist, Compound concentration 10.0 uM
[3] = molecular target: Peroxisome proliferator-activated receptor gamma (Homo sapiens) (UniProt P37231); assay: PPARgamma (h) Eurofins-Cerep binding assay; parameters: ligand concentration 5 nM; conditions: filed as agonist, Compound concentration 10.0 uM
[4] = molecular target: 5-hydroxytryptamine receptor 2B (Homo sapiens) (UniProt P41595); assay: 5-HT2B (h) Eurofins-Cerep binding assay; parameters: ligand concentration 0.2 nM; conditions: filed as agonist, Compound concentration 10.0 uM
Chain of 5-hydroxytryptamine receptor 2B (Homo sapiens) (P41595 whole entry): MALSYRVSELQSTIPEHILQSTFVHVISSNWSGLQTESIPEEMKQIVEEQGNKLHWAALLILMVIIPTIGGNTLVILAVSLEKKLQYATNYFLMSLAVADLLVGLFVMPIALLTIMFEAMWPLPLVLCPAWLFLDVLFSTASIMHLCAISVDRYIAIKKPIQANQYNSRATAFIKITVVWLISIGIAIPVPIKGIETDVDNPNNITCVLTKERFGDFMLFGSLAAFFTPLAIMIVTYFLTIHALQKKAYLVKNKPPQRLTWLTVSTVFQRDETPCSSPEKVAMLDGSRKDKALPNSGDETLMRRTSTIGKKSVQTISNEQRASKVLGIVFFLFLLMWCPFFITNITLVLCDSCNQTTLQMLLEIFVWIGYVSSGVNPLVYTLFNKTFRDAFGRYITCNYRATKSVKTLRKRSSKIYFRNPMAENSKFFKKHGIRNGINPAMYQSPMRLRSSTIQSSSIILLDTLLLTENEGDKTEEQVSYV

[5] = molecular target: T1, 5-hydroxytryptamine receptor 2C (Homo sapiens) (UniProt P28335); assay: 5-HT2C (h) Eurofins-Cerep binding assay; parameters: ligand concentration 1 nM; conditions: filed as antagonist, Compound concentration 10.0 uM
T1 sequence (whole entry): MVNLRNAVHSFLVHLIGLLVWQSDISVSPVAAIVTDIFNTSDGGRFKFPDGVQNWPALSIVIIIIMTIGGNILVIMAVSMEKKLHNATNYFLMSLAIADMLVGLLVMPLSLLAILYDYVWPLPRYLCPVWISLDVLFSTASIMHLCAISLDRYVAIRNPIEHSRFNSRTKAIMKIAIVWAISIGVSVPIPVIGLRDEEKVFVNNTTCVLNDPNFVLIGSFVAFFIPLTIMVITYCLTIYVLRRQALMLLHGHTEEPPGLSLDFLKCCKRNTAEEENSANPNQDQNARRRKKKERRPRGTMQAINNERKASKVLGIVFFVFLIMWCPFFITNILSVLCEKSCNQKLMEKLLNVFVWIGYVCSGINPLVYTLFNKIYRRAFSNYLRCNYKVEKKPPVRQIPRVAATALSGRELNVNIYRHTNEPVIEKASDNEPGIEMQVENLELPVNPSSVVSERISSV

[6] = molecular target: Estrogen receptor (Homo sapiens) (UniProt P03372); assay: Estrogen ER alpha (h) Eurofins-Cerep binding assay; parameters: ligand concentration 0.5 nM; conditions: filed as agonist, Compound concentration 10.0 uM
[7] = molecular target: Vasopressin V1a receptor (Homo sapiens) (UniProt P37288); assay: V1 a (h) Eurofins-Cerep binding assay; parameters: ligand concentration 0.3 nM; conditions: filed as agonist, Compound concentration 10.0 uM
Chain of Vasopressin V1a receptor (Homo sapiens) (P37288 whole entry, looked up): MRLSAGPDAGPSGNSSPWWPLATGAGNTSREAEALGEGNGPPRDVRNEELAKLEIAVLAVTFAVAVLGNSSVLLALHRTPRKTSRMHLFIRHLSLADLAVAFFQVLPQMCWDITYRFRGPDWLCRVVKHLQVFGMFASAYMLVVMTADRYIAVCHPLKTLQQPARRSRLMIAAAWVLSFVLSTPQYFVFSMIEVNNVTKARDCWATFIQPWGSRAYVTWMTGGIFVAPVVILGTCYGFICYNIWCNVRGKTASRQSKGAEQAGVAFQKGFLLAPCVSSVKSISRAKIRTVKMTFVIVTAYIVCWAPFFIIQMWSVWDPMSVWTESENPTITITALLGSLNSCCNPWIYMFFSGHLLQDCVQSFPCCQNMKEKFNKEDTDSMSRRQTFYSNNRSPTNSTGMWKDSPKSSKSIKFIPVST

[8] = molecular target: Activin receptor type-1 (Homo sapiens) (UniProt Q04771); conditions: Compound concentration 1000.0 nM
[9] = molecular target: Calcium/calmodulin-dependent protein kinase type 1D (Homo sapiens) (UniProt Q8IU85); conditions: Compound concentration 1000.0 nM
[10] = molecular target: Calcium/calmodulin-dependent protein kinase type II subunit beta (Homo sapiens) (UniProt Q13554); conditions: Compound concentration 1000.0 nM
[11] = molecular target: Cyclin-dependent kinase 11A (Homo sapiens) (UniProt Q9UQ88); conditions: Compound concentration 1000.0 nM
Chain of Cyclin-dependent kinase 11A (Homo sapiens) (Q9UQ88 whole entry): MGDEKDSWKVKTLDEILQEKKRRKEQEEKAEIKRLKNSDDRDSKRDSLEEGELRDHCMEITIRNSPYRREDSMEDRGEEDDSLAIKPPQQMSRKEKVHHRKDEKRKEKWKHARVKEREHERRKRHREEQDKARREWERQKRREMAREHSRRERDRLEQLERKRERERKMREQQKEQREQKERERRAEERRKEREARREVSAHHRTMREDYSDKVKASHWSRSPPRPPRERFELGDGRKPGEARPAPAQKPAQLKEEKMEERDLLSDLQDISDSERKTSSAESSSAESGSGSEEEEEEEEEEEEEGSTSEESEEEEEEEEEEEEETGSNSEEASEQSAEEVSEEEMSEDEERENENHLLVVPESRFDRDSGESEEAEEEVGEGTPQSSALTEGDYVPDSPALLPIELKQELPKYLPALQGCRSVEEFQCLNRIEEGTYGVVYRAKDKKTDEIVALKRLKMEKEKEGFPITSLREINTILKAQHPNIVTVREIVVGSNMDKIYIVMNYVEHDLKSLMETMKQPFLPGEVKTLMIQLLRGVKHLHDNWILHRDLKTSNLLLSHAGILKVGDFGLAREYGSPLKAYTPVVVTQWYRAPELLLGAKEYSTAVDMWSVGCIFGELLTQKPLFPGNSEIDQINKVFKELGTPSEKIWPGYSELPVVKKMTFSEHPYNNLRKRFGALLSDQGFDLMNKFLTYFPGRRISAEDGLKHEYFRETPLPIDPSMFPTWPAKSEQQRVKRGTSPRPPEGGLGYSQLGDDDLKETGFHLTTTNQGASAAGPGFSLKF

[12] = molecular target: Casein kinase II subunit alpha' (Homo sapiens) (UniProt P19784); conditions: Compound concentration 1000.0 nM
[13] = system: Receptor-type tyrosine-protein kinase FLT3 (Homo sapiens), P36888 [UNDEFINED MUTATION]; conditions: Compound concentration 1000.0 nM
[14] = molecular target: Receptor-type tyrosine-protein kinase FLT3 (Homo sapiens) (UniProt P36888); conditions: Compound concentration 1000.0 nM
[15] = molecular target: Inhibitor of nuclear factor kappa-B kinase subunit beta (Homo sapiens) (UniProt O14920); conditions: Compound concentration 1000.0 nM
Chain of Inhibitor of nuclear factor kappa-B kinase subunit beta (Homo sapiens) (O14920 whole entry): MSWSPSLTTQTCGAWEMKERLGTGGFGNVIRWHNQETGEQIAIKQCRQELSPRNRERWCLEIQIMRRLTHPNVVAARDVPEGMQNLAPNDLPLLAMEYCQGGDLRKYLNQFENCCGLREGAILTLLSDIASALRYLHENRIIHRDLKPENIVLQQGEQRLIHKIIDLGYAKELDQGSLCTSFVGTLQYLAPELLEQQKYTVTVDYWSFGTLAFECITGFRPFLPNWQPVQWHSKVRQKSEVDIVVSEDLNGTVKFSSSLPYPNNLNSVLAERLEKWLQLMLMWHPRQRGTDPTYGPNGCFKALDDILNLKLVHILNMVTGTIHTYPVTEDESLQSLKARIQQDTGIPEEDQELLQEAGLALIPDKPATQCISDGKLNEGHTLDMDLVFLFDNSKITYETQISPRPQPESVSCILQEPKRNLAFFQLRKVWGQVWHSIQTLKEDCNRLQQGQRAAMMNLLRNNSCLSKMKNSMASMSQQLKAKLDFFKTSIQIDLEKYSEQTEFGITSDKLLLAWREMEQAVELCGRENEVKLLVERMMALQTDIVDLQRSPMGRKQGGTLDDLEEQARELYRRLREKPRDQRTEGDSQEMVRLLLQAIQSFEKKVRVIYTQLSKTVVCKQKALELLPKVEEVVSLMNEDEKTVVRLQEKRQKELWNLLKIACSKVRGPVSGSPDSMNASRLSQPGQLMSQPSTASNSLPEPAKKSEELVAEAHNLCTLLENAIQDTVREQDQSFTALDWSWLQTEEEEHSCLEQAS

[16] = molecular target: Mitogen-activated protein kinase kinase kinase 13 (Homo sapiens) (UniProt O43283); conditions: Compound concentration 1000.0 nM
[17] = molecular target: Mitogen-activated protein kinase kinase kinase 15 (Homo sapiens) (UniProt Q6ZN16); conditions: Compound concentration 1000.0 nM
[18] = molecular target: Dual specificity mitogen-activated protein kinase kinase 1 (Homo sapiens) (UniProt Q02750); conditions: Compound concentration 1000.0 nM
[19] = molecular target: Dual specificity mitogen-activated protein kinase kinase 5 (Homo sapiens) (UniProt Q13163); conditions: Compound concentration 1000.0 nM
[20] = molecular target: Hepatocyte growth factor receptor (Homo sapiens) (UniProt P08581); conditions: Compound concentration 1000.0 nM
[21] = molecular target: Serine/threonine-protein kinase NIM1 (Homo sapiens) (UniProt Q8IY84); conditions: Compound concentration 1000.0 nM
[22] = molecular target: Phosphatidylinositol 4-kinase beta (Homo sapiens) (UniProt Q9UBF8); conditions: Compound concentration 1000.0 nM
Chain of Phosphatidylinositol 4-kinase beta (Homo sapiens) (Q9UBF8 2-816 limits assumed): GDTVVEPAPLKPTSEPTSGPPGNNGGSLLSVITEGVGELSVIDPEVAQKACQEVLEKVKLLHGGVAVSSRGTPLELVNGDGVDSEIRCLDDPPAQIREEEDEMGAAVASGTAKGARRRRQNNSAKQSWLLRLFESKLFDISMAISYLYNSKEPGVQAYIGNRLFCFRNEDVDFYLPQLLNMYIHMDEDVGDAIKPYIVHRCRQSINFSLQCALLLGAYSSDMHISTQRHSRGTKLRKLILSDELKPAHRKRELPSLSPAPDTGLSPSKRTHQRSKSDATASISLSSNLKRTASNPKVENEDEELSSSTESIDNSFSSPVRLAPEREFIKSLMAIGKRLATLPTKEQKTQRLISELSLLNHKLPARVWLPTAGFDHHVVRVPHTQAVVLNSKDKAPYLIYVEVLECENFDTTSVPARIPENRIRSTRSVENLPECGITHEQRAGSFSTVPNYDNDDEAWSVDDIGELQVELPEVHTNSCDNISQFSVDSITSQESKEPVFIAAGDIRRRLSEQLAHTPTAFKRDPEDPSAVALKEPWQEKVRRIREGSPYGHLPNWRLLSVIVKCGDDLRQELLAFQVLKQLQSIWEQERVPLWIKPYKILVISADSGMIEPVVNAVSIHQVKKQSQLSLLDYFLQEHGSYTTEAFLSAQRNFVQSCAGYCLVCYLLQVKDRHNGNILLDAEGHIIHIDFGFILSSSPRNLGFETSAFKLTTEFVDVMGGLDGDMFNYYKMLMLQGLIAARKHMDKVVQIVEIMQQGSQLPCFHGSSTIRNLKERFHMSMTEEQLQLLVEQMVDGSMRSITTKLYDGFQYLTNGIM

[23] = molecular target: Protein kinase C iota type (Homo sapiens) (UniProt P41743); conditions: Compound concentration 1000.0 nM
[24] = molecular target: Interferon-induced, double-stranded RNA-activated protein kinase (Homo sapiens) (UniProt P19525); conditions: Compound concentration 1000.0 nM
[25] = molecular target: Serine/threonine-protein kinase SBK1 (Homo sapiens) (UniProt Q52WX2); conditions: Compound concentration 1000.0 nM
Chain of Serine/threonine-protein kinase SBK1 (Homo sapiens) (Q52WX2 whole entry): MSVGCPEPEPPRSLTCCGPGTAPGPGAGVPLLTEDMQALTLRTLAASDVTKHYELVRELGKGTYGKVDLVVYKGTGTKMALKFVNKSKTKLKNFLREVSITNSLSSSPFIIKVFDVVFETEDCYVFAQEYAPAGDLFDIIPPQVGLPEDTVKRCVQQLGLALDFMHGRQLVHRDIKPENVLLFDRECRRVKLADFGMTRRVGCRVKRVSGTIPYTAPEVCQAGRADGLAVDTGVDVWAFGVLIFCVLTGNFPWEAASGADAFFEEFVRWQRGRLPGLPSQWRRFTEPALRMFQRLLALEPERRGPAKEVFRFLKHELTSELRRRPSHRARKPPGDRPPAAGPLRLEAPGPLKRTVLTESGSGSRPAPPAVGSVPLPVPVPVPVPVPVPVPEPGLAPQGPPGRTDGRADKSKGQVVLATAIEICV

[26] = molecular target: SRSF protein kinase 2 (Homo sapiens) (UniProt P78362); conditions: Compound concentration 1000.0 nM
[27] = molecular target: Dual specificity testis-specific protein kinase 1 (Homo sapiens) (UniProt Q15569); conditions: Compound concentration 1000.0 nM
Chain of Dual specificity testis-specific protein kinase 1 (Homo sapiens) (Q15569 whole entry, looked up): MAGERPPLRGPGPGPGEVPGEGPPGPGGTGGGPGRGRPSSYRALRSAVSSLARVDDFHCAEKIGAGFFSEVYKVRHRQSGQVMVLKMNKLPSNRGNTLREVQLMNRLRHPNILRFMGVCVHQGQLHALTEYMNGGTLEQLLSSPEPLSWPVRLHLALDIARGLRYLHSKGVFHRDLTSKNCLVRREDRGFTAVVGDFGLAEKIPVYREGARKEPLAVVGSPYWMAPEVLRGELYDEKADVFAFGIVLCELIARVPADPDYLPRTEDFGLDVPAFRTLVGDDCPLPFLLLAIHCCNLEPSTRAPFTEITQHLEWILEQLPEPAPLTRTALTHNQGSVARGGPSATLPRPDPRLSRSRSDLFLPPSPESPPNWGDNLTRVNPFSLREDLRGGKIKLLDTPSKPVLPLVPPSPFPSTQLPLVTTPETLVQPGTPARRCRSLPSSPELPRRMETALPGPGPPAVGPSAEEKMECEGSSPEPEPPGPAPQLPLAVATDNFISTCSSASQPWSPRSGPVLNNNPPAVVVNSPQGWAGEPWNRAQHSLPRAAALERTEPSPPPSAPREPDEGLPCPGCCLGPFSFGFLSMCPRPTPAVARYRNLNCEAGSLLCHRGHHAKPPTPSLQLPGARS

[28] = molecular target: High affinity nerve growth factor receptor (Homo sapiens) (UniProt P04629); conditions: Compound concentration 1000.0 nM
[29] = molecular target: 5-hydroxytryptamine receptor 2B (Homo sapiens) (UniProt P41595); conditions: Compound concentration 10.0 uM
[30] = molecular target: D(2) dopamine receptor (Homo sapiens) (UniProt P14416); conditions: Compound concentration 10.0 uM
Chain of D(2) dopamine receptor (Homo sapiens) (P14416 whole entry): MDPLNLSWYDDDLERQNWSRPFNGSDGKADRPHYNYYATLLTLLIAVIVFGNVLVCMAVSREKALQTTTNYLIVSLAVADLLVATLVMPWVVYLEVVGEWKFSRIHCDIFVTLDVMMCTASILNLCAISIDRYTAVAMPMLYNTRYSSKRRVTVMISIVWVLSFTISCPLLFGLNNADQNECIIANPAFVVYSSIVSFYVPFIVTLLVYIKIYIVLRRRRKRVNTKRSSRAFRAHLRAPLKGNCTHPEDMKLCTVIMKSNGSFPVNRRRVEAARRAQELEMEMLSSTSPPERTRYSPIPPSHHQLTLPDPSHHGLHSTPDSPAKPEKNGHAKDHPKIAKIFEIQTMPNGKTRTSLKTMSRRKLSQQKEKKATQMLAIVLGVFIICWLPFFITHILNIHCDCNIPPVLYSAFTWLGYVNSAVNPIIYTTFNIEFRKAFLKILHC

[31] = molecular target: T2, Alpha-2B adrenergic receptor (Homo sapiens) (UniProt P18089); conditions: Compound concentration 10.0 uM
T2 sequence (whole entry): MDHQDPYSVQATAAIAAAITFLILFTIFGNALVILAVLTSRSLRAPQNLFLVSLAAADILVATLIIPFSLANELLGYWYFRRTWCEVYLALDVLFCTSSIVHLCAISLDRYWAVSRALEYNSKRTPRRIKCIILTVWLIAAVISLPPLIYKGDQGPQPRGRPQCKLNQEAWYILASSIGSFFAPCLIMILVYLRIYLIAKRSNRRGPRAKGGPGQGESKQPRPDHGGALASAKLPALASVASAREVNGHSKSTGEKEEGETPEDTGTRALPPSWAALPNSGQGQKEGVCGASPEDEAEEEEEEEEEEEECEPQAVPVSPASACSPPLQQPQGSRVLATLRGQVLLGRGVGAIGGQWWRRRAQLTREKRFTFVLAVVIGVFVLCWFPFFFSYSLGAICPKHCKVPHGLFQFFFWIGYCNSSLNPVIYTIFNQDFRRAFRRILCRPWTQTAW

Row | Compound | % Inhibition of Control Specific Binding (Mean n=2) [1] [%] | % Inhibition of Control Specific Binding (Mean n=2) [2] [%] | % Inhibition of Control Specific Binding (Mean n=2) [3] [%] | % Inhibition of Control Specific Binding (Mean n=2) [4] [%] | % Inhibition of Control Specific Binding (Mean n=2) [5] [%] | % Inhibition of Control Specific Binding (Mean n=2) [6] [%] | % Inhibition of Control Specific Binding (Mean n=2) [7] [%] | residual activity [8] [%] | residual activity [9] [%] | residual activity [10] [%] | residual activity [11] [%] | residual activity [12] [%] | residual activity [13] [%] | residual activity [14] [%] | residual activity [15] [%] | residual activity [16] [%] | residual activity [17] [%] | residual activity [18] [%] | residual activity [19] [%] | residual activity [20] [%] | other results
1 | COc1ccc2c(c1)O[C@@H](c1ccc(OC)c(OC)c1)C[C@H]2NC(=O)C1(c2ccc3c(c2)OC(F)(F)O3)CC1 [A-1596586] | -12.3 | -3.3 | -5.5 | 8.5 | 6.4 | 2.9 | 4.7 | 100 | 94 | 69 | 100 | 87 | 65 | 80 | 95 | 67 | 88 | 86 | 67 | 100 | residual activity [21]: 94%; residual activity [22]: 73%; residual activity [23]: 92%; residual activity [24]: 100%; residual activity [25]: 94%; residual activity [26]: 91%; residual activity [27]: 96%; residual activity [28]: 100%; inhibition [29]: 1.62%; inhibition [30]: 2.62%; inhibition [31]: 37.5%
2 | COc1ccc2c(c1)O[C@H](c1ccc(OC)c(OC)c1)C[C@@H]2NC(=O)C1(c2ccc3c(c2)OC(F)(F)O3)CC1 [A-1596584] | -49.6 | -12.8 | 13.7 | -14.6 | 1.2 | -4 | 5.9 | 98 | 100 | 88 | 100 | 100 | 72 | 83 | 97 | 91 | 100 | 100 | 76 | 87 | residual activity [21]: 84%; residual activity [22]: 81%; residual activity [23]: 89%; residual activity [24]: 100%; residual activity [25]: 90%; residual activity [26]: 100%; residual activity [27]: 98%; residual activity [28]: 100%; inhibition [29]: -0.83%; inhibition [30]: -7.27%; inhibition [31]: 19.6%
